Holding throughout (assay type): cell-based
In test [1] the test system is B16-F1 melanocytes. The test is described as follows: B16 Pigmentation Assay. The source says: B16 Pigmentation Assay: Melanogenesis is the process by which melanocytes produce melanin, a naturally produced pigment that imparts color to skin, hair, and eyes. Inhibiting melanogenesis is beneficial to prevent skin darkening and lighten dark spots associated with aging. This bioassay utilizes B16-F1 melanocytes (ATCC), an immortalized mouse melanoma cell line, to analyze the effect of compounds on melanogenesis. The endpoint of this assay is a spectrophotometric measurement of melanin production and cellular viability. B16-F1 melanocytes, can be cultivated in standard DMEM growth medium with 10% fetal bovine serum (Mediatech) at 37° C. in 10% CO2 and then treated with any one of the active ingredients, combination of ingredients, or compositions having said combinations disclosed in the specification for 6 days. Following incubation, melanin secretion was measured by absorbance at 405 nm and cellular viability was quantified.

The test system of test [2] is IL-1α production by Human Epidermal Keratinocytes. Put plainly: IL-1α Assay (ELISA, cell culture supernates). As for the experimental part: IL-1α Assay: A quantitative sandwich enzyme immunoassay technique(ELISA) was used to measure IL-1α in cell culture supernates. A monoclonal antibody that is specific for IL-1α was pre-coated onto a microplate. Standards and treatment samples are then pipetted into the wells and any IL-1α present is bound by the immobilized antibody. After washing away any unbound substances, an enzyme-linked polyclonal antibody specific for IL-1α is added to the wells. Following a wash to remove any unbound antibody-enzyme reagent, a substrate solution is added to the wells and color develops in proportion to the amount of IL-1α bound which was secreted in response to the treatment.
In general terms: An ELISA detects its analyte on a solid surface through an enzyme-linked reagent.

Test [3] deals with TNF-α production by human epidermal keratinocytes. Put plainly: Tumor Necrosis Factor Alpha (TNF-α) Assay (ELISA). The text has this: Tumor Necrosis Factor Alpha (TNF-α) Assay: The prototype ligand of the TNF superfamily, TNF-α, is a pleiotropic cytokine that plays a central role in inflammation. Increase in its expression is associated with an up regulation in pro-inflammatory activity. This bioassay can be used to analyze the effect of any one of the active ingredients, combination of ingredients, or compositions having said combinations disclosed in the specification on the production of TNF-α by human epidermal keratinocytes. The endpoint of this assay can be a spectrophotometric measurement that reflects the presence of TNF-α and cellular viability. The assay employs the quantitative sandwich enzyme immunoassay technique whereby a monoclonal antibody specific for TNF-α has been pre-coated onto a microplate. […] Following a wash to remove any unbound antibody-enzyme reagent, a substrate solution can be added to the wells and color develops in proportion to the amount of TNF-α bound in the initial step using a microplate reader for detection at 450 nm. The color development can be stopped and the intensity of the color can be measured. […] Following incubation, cell culture medium can be collected and the amount of TNF-α secretion quantified using a sandwich enzyme linked immuno-sorbant assay (ELISA) from R&D Systems (#DTA00C).

On to `NC(=O)c1cccnc1` [Niacinamide], for which the “Inhibits Melanogenesis with Mouse Melanocytes (B16-F1 Assay)” value in test [1] is “(−28%)”.
In the case of Acetyl dipeptide-1 Cetyl Ester, in test [2], the Inhibit IL-1α Production by Human Epidermal Keratinocytes (% inhibition) was determined as 97%. Besides, the Inhibit TNF-α Production by Human Epidermal Keratinocytes in test [3] was found to be 88%.

Values taken from patent publication US11253460B2, “Cosmetic compositions” (Mary Kay Inc., priority 2013, dated 2022).
